Measured values taken from patent US8183351B2, “Avermectin derivatives” (Bayer Cropscience AG, priority 2006, dated 2012).

Legend:
Format in all cases: in vivo
[1] = test system: Lucilia cuprina larvae; assay: Lucilia cuprina test (LUCICU); conditions: treated horsemeat
Method: Lucilia cuprina Test (LUCICU)
Description for Examples A and B
(§1) • Solvent: Dimethyl sulphoxide
To produce a suitable preparation of active compound, 1 part by weight of active compound is mixed with the stated amount of water and the concentrate is diluted with water to the desired concentration.
Containers containing horsemeat treated with the active compound preparation of the desired concentration are populated with Lucilia cuprina larvae.
After the desired period of time, the kill in % is determined. 100% means that all larvae have been killed; 0% means that none of the larvae have been killed.
(§2) In this test, for example, the following compounds of the preparation examples show good activity: see table

[2] = test system: adult Musca domestica; assay: Musca domestica test (MUSCDO); conditions: Example C, treated sponge
Method: Musca domestica Test (MUSCDO)
as §1
To produce a suitable preparation of active compound, 1 part by weight of active compound is mixed with the stated amount of water, and the concentrate is diluted with water to the desired concentration.
Containers containing a sponge treated with the preparation of active compound of the desired concentration are populated with adult Musca domestica.
After the desired period of time, the kill in % is determined. 100% means that all flies have been killed; 0% means that none of the flies have been killed.
as §2

[3] = test system: larvae of the mustard beetle (Phaedon cochleariae); assay: Phaedon test (PHAECO spray treatment); conditions: 4 ppm active compound, sprayed Chinese cabbage discs
Method: Phaedon Test (PHAECO Spray Treatment)
• Solvents: 78 parts by weight of acetone • 1.5 parts by weight of dimethylformamide • Emulsifier: 0.5 part by weight of alkylaryl polyglyycol ether
After the desired period of time, the effect in % is determined. 100% means that all beetle larvae have been killed; 0% means that none of the beetle larvae have been killed.

[4] = test system: caterpillars of the army worm (Spodoptera frugiperda); assay: Spodoptera frugiperda test (SPODFR spray treatment); conditions: Example I; 4 ppm active compound; sprayed maize leaf discs
Method: Spodoptera frugiperda Test (SPODFR Spray Treatment)
• Solvents: 78.0 parts by weight of acetone • 1.5 parts by weight of dimethylformamide • Emulsifier: 0.5 part by weight of alkylaryl polyglyycol ether
After the desired period of time, the effect in % is determined. 100% means that all caterpillars have been killed; 0% means that none of the caterpillars have been killed.

[5] = test system: unfed adult fleas (Ctenocephalides felis); assay: Ctenocephalides felis; oral (CTECFE); conditions: Example J; 4 ppm active compound in citrated cattle blood, oral uptake
Method: Ctenocephalides felis; Oral (CTECFE)
as §1
To produce a suitable preparation of active compound, 1 part by weight of active compound is mixed with the stated amount of solvent. Part of the concentrate is diluted with citrated cattle blood, and the desired concentration is prepared.
20 unfed adult fleas (Ctenocephalides felis) are placed into a chamber whose top and bottom ends are closed with gauze. A metal cylinder whose bottom end is closed with parafilm is placed onto the chamber. The cylinder contains the blood/active compound preparation, which can be taken up by the fleas through the parafilm membrane. The blood is warmed to 37° C., but the flea chamber is at room temperature.
After the desired period of time, the kill in % is determined. 100% means that all fleas have been killed; 0% means that none of the fleas have been killed.
as §2

[6] = test system: greenhouse red spider mite (Tetranychus urticae); assay: Tetranychus test, OP-resistant (TETRUR spray treatment); conditions: sprayed bean leaf discs
Method: Tetranychus Test, OP-resistant (TETRUR Spray Treatment)
• Solvents: 78 parts by weight of acetone • 1.5 parts by weight of dimethylformamide • Emulsifier: 0.5 part by weight of alkylaryl polyglycol ether
(§3) To produce a suitable preparation of active compound, 1 part by weight of active compound is mixed with the stated amounts of solvents and emulsifier, and the concentrate is diluted with emulsifier-containing water to the desired concentration.
Discs of bean leaves (Phaseolus vulgaris) heavily infested by all stages of the greenhouse red spider mite (Tetranychus urticae) are sprayed with a preparation of active compound of the desired concentration.
After the desired period of time, the effect in % is determined 100% means that all spider mites have been killed; 0% means that none of the spider mites have been killed.
as §2

[7] = test system: eggs, larvae and pupae of the whitefly (Bemisia tabaci); assay: Bemisia tabaci test, normally sensitive strains (BEMITA); conditions: Example E; 0.8 ppm active compound; sprayed cotton plants
Method: Bemisia tabaci Test, Normally Sensitive Strains, (BEMITA)
• Solvent: 7 parts by weight of dimethylformamide • Emulsifier: 10 parts by weight of alkylaryl polyglycol ether
as §3
Cotton plants (Gossypium hirsutum) infected by eggs, larvae and pupae of the whitefly (Bemisia tabaci) are treated by being sprayed with the preparation of active compound at the desired concentration.
After the desired period of time, the kill in % is determined 100% means that all animals have been killed; 0% means that none of the animals have been killed.
as §2

[8] = Example A, 0.8 ppm active compound
[9] = Example H, 0.032 ppm active compound
[10] = Example F, 0.00128 ppm active compound

Compound | Kill rate in % after 2 days [1, 8] | Kill rate in % after 2 days ([2]; 100 ppm active compound) | Kill rate in % after 7 days ([3]; Example G) | Kill rate in % after 2 days [5] | also measured
CC[C@H](C)[C@H]1OC2(C=C[C@@H]1C)C[C@@H]1C[C@@H](C/C=C(\C)[C@@H](OC3CC(OC)C(OC(=O)CN4CCCCC4)C(C)O3)[C@@H](C)/C=C/C=C3\CO[C@@H]4[C@H](O)C(C)=CC(C(=O)O1)[C@]34O)O2 (some centres unmarked) [Example 50] | 100% | 90% | 83% | 50% | Kill rate in % after 5 days [4]: 100%
CC[C@H](C)[C@H]1OC2(CC[C@@H]1C)C[C@@H]1C[C@@H](C/C=C(\C)[C@@H](OC3CC(OC)C(OC(=O)C(C)(C)n4cncn4)C(C)O3)[C@@H](C)/C=C/C=C3\CO[C@@H]4[C@H](O)C(C)=CC(C(=O)O1)[C@]34O)O2 (some centres unmarked) [Example 23] | – | – | 100% | – | Kill rate in % after 5 days [6, 9]: 70%
CC[C@H](C)[C@H]1OC2(C=C[C@@H]1C)C[C@@H]1C[C@@H](C/C=C(\C)[C@@H](OC3CC(OC)C(OC(=O)CN(C)C)C(C)O3)[C@@H](C)/C=C/C=C3\CO[C@@H]4[C@H](O)C(C)=CC(C(=O)O1)[C@]34O)O2 (some centres unmarked) [Example 57] | 100% | 90% | 100% | 40% | –
COC1CC(OC2C(C)=CCC3CC(CC4(CCC(C)C(C(C)C)O4)O3)OC(=O)C3C=C(C)C(O)C4OCC(=CC=CC2C)C34O)OC(C)C1OC(C)=O [4′-O-acetyl-4′-O-de(2,6-dideoxy-3-O-methyl-α-L-arabino-hexopyranosyl)-5-O-demethyl-25-de(1-methylpropyl)-22,23-dihydro-25-(1-methylethyl)-avermectin A1a, reference compound] | – | – | 0% | 20% | Kill rate in % after 5 days [6, 9]: 0%; Kill rate in % after 5 days [4]: 0%
4′-O-acetyl-4′-O-de(2,6-dideoxy-3-O-methyl-α-L-arabino-hexopyrano-syl)-5-O-demethyl-avermectin A1a [reference compound] | 30% | 60% | – | – | Kill rate in % after 2 days ([1]; Example B, 0.16 ppm active compound): 0%; Kill rate in % after 2 days ([2]; 0.8 ppm active compound): 0%; Kill rate in % after 7 days ([3]; Example D): 0%; Kill rate in % after 7 days [7]: 0%; Kill rate in % after 5 days [6, 10]: 0%
CC[C@H](C)[C@H]1OC2(C=C[C@@H]1C)C[C@@H]1C[C@@H](C/C=C(\C)[C@@H](OC3CC(OC)C(OC(=O)Cc4nn(C)c(=O)n4C)C(C)O3)[C@@H](C)/C=C/C=C3\CO[C@@H]4[C@H](O)C(C)=CC(C(=O)O1)[C@]34O)O2 (some centres unmarked) [Example 60] | 90% | 100% | 100% | 50% | –
CC[C@H](C)[C@H]1OC2(C=C[C@@H]1C)C[C@@H]1C[C@@H](C/C=C(\C)[C@@H](OC3CC(OC)C(OC(=O)c4ccccc4)C(C)O3)[C@@H](C)/C=C/C=C3\CO[C@@H]4[C@H](O)C(C)=CC(C(=O)O1)[C@]34O)O2 (some centres unmarked) [Example 2] | – | – | – | – | Kill rate in % after 5 days [6, 10]: 80%
CC[C@H](C)[C@H]1OC2(C=C[C@@H]1C)C[C@@H]1C[C@@H](C/C=C(\C)[C@@H](OC3CC(OC)C(OC(=O)C4(C)COCOC4)C(C)O3)[C@@H](C)/C=C/C=C3\CO[C@@H]4[C@H](O)C(C)=CC(C(=O)O1)[C@]34O)O2 (some centres unmarked) [Example 14] | 100% | – | – | – | Kill rate in % after 7 days [7]: 80%
